Converted amounts (≈) assume the structure as drawn.
Tests used:
[1] = tested on: Enterobacter spp. isolates (n = 102); assay: Broth microdilution MIC, clinical isolate panel; assay type: cell-based, Enterobacter aerogenes and E. cloacae; conditions: Enterobacter spp. (n = 102)
Description: (§1) Comparator antibiotics were supplied by Micromyx, and stock solutions were prepared on the first day of testing using solvents recommended by CLSI (1). Stock solutions of all compounds were made at 40× the final testing concentration and stored at −80° C. prior to testing. Information regarding compound source, catalog and lot number, testing concentrations and drug diluent for the comparators and test agent are detailed below in Table 3.
(§2) The test organisms evaluated in this study consisted of clinical isolates from the Micromyx Repository and reference isolates from the American Type Culture Collection (ATCC; Manassas, Va.). The clinical isolates were obtained from USA hospitals. Upon initial receipt at Micromyx, the organisms were sub-cultured onto an appropriate agar medium. Following incubation, colonies were harvested from these plates and cell suspensions prepared and frozen at −80° C. with a cryoprotectant. Prior to testing, the isolates were streaked from frozen vials onto Trypticase Soy Agar with 5% sheep blood (Becton Dickenson [BD]; Sparks, Md.; Lot Nos. 7173618, 7166759, 7208688, 72144895, 7228505 and Remel Lenexa, Kans. Lot No. 212574). Plates were incubated at 35° C. overnight.
(§3) Mueller Hinton II broth (MHB II; BD; Lot Nos. 6258541 and 7143896) was used for MIC testing of aerobic organisms.
(§4) MIC values were determined using a broth microdilution procedure described by CLSI (1, 3). Automated liquid handlers (Multidrop 384, Labsystems, Helsinki, Finland; Biomek 2000 and Biomek FX, Beckman Coulter, Fullerton Calif.) were used to conduct serial dilutions and liquid transfers.
(§5) To prepare the drug mother plates, which would provide the serial drug dilutions for the replicate daughter plates, the wells of columns 2-12 of standard 96-well microdilution plates (Costar 3795) were filled with 150 μl of the designated diluent for each row of drug. The test articles and comparator compounds (300 μl at 40× the highest concentration to be tested) were dispensed into the appropriate wells in column 1. The Biomek 2000 was then used to make 2-fold serial dilutions in the mother plates from column 1 through column 11. The wells of Column 12 contained no drug and served as the organism growth control wells for the assay.
The daughter plates were loaded with 185 μL per well of MHB II using the Multidrop 384. The daughter plates were completed on the Biomek FX instrument which transferred 5 µL of drug solution from each well of a mother plate to the corresponding well of each daughter plate in a single step. […]
Plates were stacked 3-4 high, covered with a lid on the top plate, placed in plastic bags, and incubated at 35° C. for 16 to 20 hrs. […] The MIC was read and recorded as the lowest concentration of drug that inhibited visible growth of the organism. […]

[2] = tested on: Pseudomonas aeruginosa isolates (n = 109); assay: Broth microdilution MIC, clinical isolate panel; assay type: cell-based; conditions: Pseudomonas aeruginosa
Description: as §1, §2, §3, §4, §5
(§6) The daughter plates were loaded with 185 μL per well of MHB II using the Multidrop 384. The daughter plates were completed on the Biomek FX instrument which transferred 5 µL of drug solution from each well of a mother plate to the corresponding well of each daughter plate in a single step. A standardized inoculum of each test organism was prepared per CLSI methods (1). The inoculum for each organism was dispensed into sterile reservoirs divided by length (Beckman Coulter), and the Biomek 2000 was used to inoculate the plates. Daughter plates were placed on the Biomek 2000 work surface in reverse orientation so that inoculation took place from low to high drug concentration.
(§7) Plates were stacked 3-4 high, covered with a lid on the top plate, placed in plastic bags, and incubated at 35° C. for 16 to 20 hrs. Following incubation, the microplates were removed from the incubator and viewed from the bottom using a plate viewer. […] The MIC was read and recorded as the lowest concentration of drug that inhibited visible growth of the organism.
(§8) Clinical breakpoints to determine percent resistance within a given organism group were obtained from CLSI (3), with the exception of colistin for K. pneumoniae, Enterobacter spp., and E. coli, which are only available from EUCAST.

[3] = tested on: Acinetobacter spp. isolates (n = 104); assay: Broth microdilution MIC, clinical isolate panel; assay type: cell-based; conditions: Acinetobacter spp. (n = 104)
Description: as §1, §2, §3, §4, §5, §6, §7, §8

[4] = tested on: Staphylococcus aureus isolates (n = 104); assay: Broth microdilution MIC, clinical isolate panel; assay type: cell-based; conditions: Staphylococcus aureus (n = 104), all methicillin-resistant
Description: as §1, §2, §3, §4, §5, §6, §7, §8

[5] = tested on: Escherichia coli isolates (n = 101); assay: Broth microdilution MIC, clinical isolate panel; assay type: cell-based; conditions: Escherichia coli (n = 101)
Description: as §1, §2, §3, §4, §5, §6, §7, §8

[6] = tested on: Klebsiella pneumoniae isolates (n = 101); assay: Broth microdilution MIC, clinical isolate panel; assay type: cell-based; conditions: Klebsiella pneumoniae (n = 101)
Description: as §1, §2, §3, §4, §5, §6, §7, §8

[7] = tested on: Pseudomonas aeruginosa ATCC 27853 (non-MDR; QC); assay: Broth microdilution MIC (Table 2); assay type: cell-based; conditions: ATCC27853, read-out: MIC
Description: (§9) Each peptide was formulated in PBS buffer prior to testing. Peptides of SEQ ID NO:5 and SEQ ID NO:8 were brought up in 100% DMSO with 0.002% polysorbate-80 at 1.28 mg/mL (40× the highest final test concentration of 32 mcg/mL). Final test concentration of DMSO was 2.5% in the assay at the first dilution for those two compounds.
(§10) Mueller Hinton II broth (MHB II; BD; Lot Nos. 6258541 and 7143896) was used for MIC testing of aerobic organisms. 0.002% polysorbate 80 (P80) was added to the test medium.
as §4
as §5, with “serial peptide” for “serial drug”, “of peptide.” for “of drug.”
as §6, with “5 uL” for “5 µL”, “of peptide” for “of drug”, “CLSI methods.” for “CLSI methods (1).”, “concentration. The plates were then inoculated with 10 μL of the inoculum resulting in a final cell density of approximately 5×10^5 CFU/mL, per well.” for “concentration.”
as §7, with “peptide” for “drug”

[8] = tested on: Streptococcus pyogenes ATCC 49399; assay: Broth microdilution MIC (Table 2); assay type: cell-based; conditions: ATCC49399, read-out: MIC
Description: as §9, §10, §4
as §5, with “serial peptide” for “serial drug”, “of peptide.” for “of drug.”
as §6, with “5 uL” for “5 µL”, “of peptide” for “of drug”, “CLSI methods.” for “CLSI methods (1).”, “concentration. The plates were then inoculated with 10 μL of the inoculum resulting in a final cell density of approximately 5×10^5 CFU/mL, per well.” for “concentration.”
as §7, with “peptide” for “drug”

[9] = tested on: Staphylococcus aureus ATCC 29213 (MSSA; QC); assay: Broth microdilution MIC (Table 2); assay type: cell-based; conditions: read-out: MIC
Description: as §9, §10, §4
as §5, with “serial peptide” for “serial drug”, “of peptide.” for “of drug.”
as §6, with “5 uL” for “5 µL”, “of peptide” for “of drug”, “CLSI methods.” for “CLSI methods (1).”, “concentration. The plates were then inoculated with 10 μL of the inoculum resulting in a final cell density of approximately 5×10^5 CFU/mL, per well.” for “concentration.”
as §7, with “peptide” for “drug”

[10] = tested on: Enterococcus faecalis ATCC 700802 (V583 VRE); assay: Broth microdilution MIC (Table 2); assay type: cell-based; conditions: read-out: MIC
Description: as §9, §10, §4
as §5, with “serial peptide” for “serial drug”, “of peptide.” for “of drug.”
as §6, with “5 uL” for “5 µL”, “of peptide” for “of drug”, “CLSI methods.” for “CLSI methods (1).”, “concentration. The plates were then inoculated with 10 μL of the inoculum resulting in a final cell density of approximately 5×10^5 CFU/mL, per well.” for “concentration.”
as §7, with “peptide” for “drug”

C[C@H]1COc2c(N3CCN(C)CC3)c(F)cc3c(=O)c(C(=O)O)cn1c23 [Levofloxacin]
% R (percent of isolates resistant, clinical breakpoints) [1]: 4.9% | MIC50 [2]: 1 mg/L (≈ 2.77 µM) | MIC ([2]; read-out: Mode (MIC)): 0.25 mg/L (≈ 0.692 µM) | MIC50 [3]: 8 mg/L (≈ 22.1 µM) | % R (percent of isolates resistant, clinical breakpoints) [4]: Over 80% | MIC50 [4]: 8 mg/L (≈ 22.1 µM) | % R (percent of isolates resistant, clinical breakpoints) [5]: ~50% | MIC50 [5]: 4 mg/L (≈ 11.1 µM) | % R (percent of isolates resistant, clinical breakpoints) [6]: over 60% | MIC [7]: 1 mg/L (≈ 2.77 µM) | MIC [8]: 0.5 mg/L (≈ 1.38 µM) | MIC [9]: 0.25 mg/L (≈ 0.692 µM) | MIC [10]: 0.5 mg/L (≈ 1.38 µM)

Source: patent US20200071361A1, “ENGINEERED ANTIMICROBIAL AMPHIPHILIC PEPTIDES AND METHODS OF USE” (priority 2017, published 2020)
